# Data from article PMC9147645, “Food-Derived β-Carboline Alkaloids Ameliorate Lipid Droplet Accumulation in Human Hepatocytes” (Pharmaceuticals, 2022).
# Where two headings read alike, the source gives them in different places.
# Key:
# [1] = Cytotoxicity / lipocytotoxicity assay (CCK-8); type: cell-based; conditions: human; for IC50 at 24 h: HepG2, values given in the text, read-out: IC50 (cytotoxicity, cell viability)
# Protocol: (§1) HepG2 cells were purchased from the American Type Culture Collection (ATCC) (Manassas, VA, USA). High-glucose DMEM containing 10% heat-inactivated FBS and 1% penicillin–streptomycin was maintained under a humidified atmosphere at 37 °C with 5% CO2, as indicated in the Supplementary Materials. HepG2 cells (1.5 × 10^4/well) in DMEM supplemented with 10% FBS were seeded into a 96-well plate. A cytotoxicity assay was performed according to the manufacturer’s protocol using CCK-8 (Dojindo Molecular Technologies), as indicated in the Supplementary Materials (Materials and Methods). […]
# (§2) 2 1.2. Cytotoxicity assay […] HepG2 cells (1.5 × 10^4/well) in DMEM supplemented with 10% FBS were under reduced pressure, and H2O (25 ml) was added. Then the solution was seeded into a 96-well plate. The cytotoxicity assay was done using CCK-8 extracted with AcOEt after adjusted to 9–10 with aq. NaOH solution. The organic (Dojindo Molecular Technologies) according to the manufacturer's protocol. […]
# (§3) Compounds 1 and 3. To a stirred soln. Compound 10 (218 mg, 1.00 mmol), 5- Technologies, Rockville, USA) according to the manufacturer ’sinstructions. Cell Acetoxymethylfurfural (1, 168 mg, 1.00 mmol) and Nano CuO (7.955 mg, 0.1 suspension (100 μl/well) was inoculated in a 96-well plate (Iwaki, Japan), and mmol) were added 6 ml of DMF. The mixture was stirred at 90℃ for 16 h. The pH once monolayers were observed, treatments were added (n = 3 per each of the aqueous solution was adjusted to 9–10 with aq NaOH solution after adding treatment). Cells were then pre-incubated with the treatments for 24 h before H O. After extracting the solution with AcOEt, the organic layer was washed with assay to determine cell viability.Absorbance was measured at 450 nm using a 2 plate reader (PerkinElmer-ARVO-MX-ID 10533234, Japan). […]
# (§4) [5-(hydroxymethyl)-2-furanyl]-1H-pyrido[3,4-b]indole-3-carboxylic acid (2, CAS culture medium was removed from each dish, and cells were washed Registry Number 896466-77-6); flazine methyl ester acetate (3, CAS Registry and rinsed with 1× PBS. Cells were then fixed for 20 min in 10% formalin and Number 104537-95-3); flazin (4, CAS Registry Number 100041-05-2); washed twice using PBS. Then, Oil Red O dye was added to the dishes and incubated for 20 min. Finally, the dye was removed from each dish and cells 5
# HepG2 cells [2] = assay: Lipid droplet accumulation inhibition (LDAI) assay, Oil Red O, oleic acid-loaded cells; type: cell-based, human; conditions: for Induction of LDs: HepG2
# Protocol: LDAI assay: LDAI activity was determined using an Oil Red O assay with 24-well plates (n = 4 per treatment). Staining of LDs in cultured hepatocytes was performed according to the manufacturer’s instructions, based on the Oil Red O staining assay. Briefly, HepG2 cells (1.5 × 10^4/well) were supplemented with 10% FBS, cultured, seeded in 35-mm dishes, and treated with the tested samples after 24 h. Oil Red O, a fat-soluble dye, is widely used for staining neutral lipids in LDs, as described in the Supplementary Materials. […]
# 2 1.2. Cytotoxicity assay dropwise under ice-cooling. […]
# Lipid droplet accumulation inhibition assay and Real-Ti me LDAI acid tryptophan (9) and compound 12 were subjected to acid conversion at 90 °C accumulation in acetic acid to obtain compound 2 (1H and 13C, see in Supporting Information). Lipid droplet accumulation inhibition (LDAI) activity was determined using an Synthesis of Compound 4. To a stirred soln . compound 3 in MeOH was added oilred assay in a 24-well plate according to the manufacturer ’sinstructions (n = 4 with NaOH (2 mol/L). Compound 4 was obtained after stirringthe mixture at 65℃ per each treatment). Real-time oleic induced-LD inhibition was performed by for 5 h. (1H and 13C, see Figures S10 and S11). We also prepared similar using a Nikkon microscope. Morphological analysis of HepG2 cells after compounds without any substituent at the C-1 position in the C-ring using a one- treatment with control(-OA) and (+OA) or compound at different concentrations pot Pictet–Spengler reaction (6-8). was determined by staining with AO/EB.
# Synthetic b-carboline alkaloids (1-8): 1.4. Oil Red O Staining.
# CAS Registry Number of all the series of synthetic b-carboline alkaloids (1-8) HepG2 cells were cultured and treated in 35 mm dishes, as described above. were subjected to biological evaluation: 1H-Pyrido[3,4-b]indole-3-carboxylic acid, Oil Red O dye was used for LD staining. Oil Red O was dissolved in isopropanol 1-[5-[(acetyloxy)methyl]-2-furanyl]-2,3,4,9-tetrahydro-, methyl ester, (1S-trans)- as 3 mg/mL and diluted with water so that isopropanol became 60%. Oil Red O (9CI) (1,CAS Registry Number 11 5 1 0 7-75-0;11 5 1 0 7-76-1);2,3,4,9-Tetrahydro-1-solutionwasfilteredbya0.4 μm pore syringe filter.For cellular staining, the […]
# [3] = system: nuclear factor erythroid 2-related factor 2 (Nrf2); conditions: hepatocytes; cited from earlier work
# human HepG2 = system: human HepG2; design: method as in PMID 30103390; conditions: human HepG2, 180 μM; cited from earlier work
# HepG2 cells [4] = conditions: 100 μM; cited from earlier work
# HepG2 cells [5] = assay: Cytotoxicity / lipocytotoxicity assay (CCK-8); type: cell-based; conditions: 0.25 mM oleic acid, 24 h, HepG2
# Protocol: as §1, §2, §3, §4
# [6] = HepG2 cells, HepG2, DMEM loaded with fatty acid (+OA), read-out: Lipocytotoxicity (LC50), concentration at which 50% of cells died
# [7] = HepG2 cells, HepG2, DMEM without fatty acid (−OA), read-out: Cytotoxicity (CC50), concentration at which 50% of cells died
# [8] = Homo sapiens, HepG2, 24 h, HepG2 + 0.25 mM oleic acid, vs untreated control (+OA)
Compound,"CC50 at 24 h [1, 6]","CC50 at 24 h [1, 7]",inhibition at 400 µM (HepG2 cells [2]; [8]),further results
"COC(=O)[C@@H]1Cc2c([nH]c3ccccc23)C(c2ccc(COC(C)=O)o2)N1 (stereo partly shown) [Compound 1, Methyl 1,2,3,4-Tetrahydro-1-(5-[(acetyloxy)methyl]-2-furanyl)-9H-pyrido [3,4-b]indole-3-carboxylic acid]",442 µM,488 µM,63.2%,IC50 at 24 h ([1]; HepG2 cells): 488 µM
"COC(=O)c1cc2c([nH]c3ccccc32)c(-c2ccc(COC(C)=O)o2)n1 [Compound 3, flazin methyl ester acetate]",131 µM,66.8 µM,,"IC50 at 24 h ([1]; HepG2 cells): 66.9 µM; inhibition at 50 µM (HepG2 cells [2]; Homo sapiens, HepG2, 24 h, 50 μM, HepG2 + 0.25 mM oleic acid, vs untreated control (+OA)): 26%"
"COC(=O)C1Cc2c([nH]c3ccccc23)CN1 (stereo not drawn) [Compound 5, methyl 1,2,3,4-tetrahydro-β-carboline-3-carboxylate]",488 µM,397 µM,42%,
"O=C(O)C1Cc2c([nH]c3ccccc23)CN1 (stereo not drawn) [Compound 6, 1,2,3,4-Tetrahydro-β-carboline-3-carboxylic acid]",520 µM,505 µM,,
"COC(=O)c1cc2c(cn1)[nH]c1ccccc12 [Compound 7, methyl β-carboline-3-carboxylate]",,,,"CC50 at 24 h ([1]; HepG2, DMEM loaded with fatty acid (+OA), read-out: Lipocytotoxicity (LC50), concentration at which 50% of cells died): 498 µM; CC50 at 24 h ([1]; HepG2, DMEM without fatty acid (−OA), read-out: Cytotoxicity (CC50), concentration at which 50% of cells died): 390 µM; inhibition at 400 µM (HepG2 cells [2]; Homo sapiens, 24 h, HepG2 + 0.25 mM oleic acid, vs untreated control (+OA)): 25.4%"
"O=C(O)c1cc2c(cn1)[nH]c1ccccc12 [Compound 8, β-Carboline-3-carboxylic acid]",530 µM,549 µM,81.8%,
"COc1c(O)cc(CO)cc1O [DHMBA, 3,5-dihydroxy-4-methoxybenzyl alcohol, reference compound]",,,,Nrf2-dependent antioxidant action [3]: Nrf2-dependent antioxidant action
Oc1cc(O)c2cc(O)c(-c3cc(O)c(O)c(O)c3)[o+]c2c1 [Delphinidin],,,,Hepatic triglyceride accumulation (human HepG2): ameliorated hepatic triglyceride accumulation
O=c1c(-c2ccc(O)cc2)coc2c([C@@H]3O[C@H](CO)[C@@H](O)[C@H](O)[C@H]3O)c(O)ccc12 [Puerarin],,,,Hepatic steatosis (HepG2 cells [4]): ameliorates hepatic steatosis
"CCCCCCCC/C=C\CCCCCCCC(=O)O [oleic acid, reference compound]",,,,"Cell viability after oleic acid treatment (in words) (HepG2 cells [5]): no cytotoxicity; Induction of LDs (HepG2 cells [2]; 0.25 mM oleic acid, 24 h): 2.6 fold; Induction of LDs (HepG2 cells [2]; 0.5 mM oleic acid, 24 h): 2.8 fold"
